Experimental data as given in PMC9154761, “Development of Praziquantel sulphonamide derivatives as antischistosomal drugs” (Journal of Enzyme Inhibition and Medicinal Chemistry, 2022).

Experiments:
hCA IX = biological target: T1, hCA IX (Homo sapiens, UniProt Q16790); assay: stopped flow CO2 hydrase assay, hCA IX; format: biochemical; conditions: mean from three different assays
T1 construct: made in house
Method: (§1) An Applied Photophysics stopped-flow instrument was used to assay the CA catalysed CO2 hydration activity. […] The CO2 concentrations ranged from 1.7 to 17 mM for the determination of the kinetic parameters and inhibition constants. […] For each inhibitor, at least six traces of the initial 5–10% of the reaction were used to determine the initial velocity. The uncatalyzed rates were determined in the same manner and subtracted from the total observed rates. Stock solutions of the inhibitor (0.1 mM) were prepared in distilled–deionized water and dilutions up to 0.01 nM were done thereafter with the assay buffer. Inhibitor and enzyme solutions were preincubated together for 15 min at room temperature prior to the assay, to allow for the formation of the E–I complex. The inhibition constants were obtained by non-linear least-squares methods using PRISM 3 and the Cheng-Prusoff equation as reported earlier and represent the mean from at least three different determinations. All CA isoforms were recombinant proteins obtained in house, as reported earlier[14]^,[26–29].

hCA I = biological target: T2, hCA I (Homo sapiens, UniProt P00915); assay: stopped flow CO2 hydrase assay, hCA I; format: biochemical; conditions: mean from three different assays
T2 construct: made in house
Method: as §1

S. mansoni adult worms = assay: In vitro antischistosomal activity against adult S. mansoni worms; format: cell-based, Schistosoma mansoni; conditions: 10 μM, 72 h, viability via microscopy
Method: (§2) In vitro studies were carried out in accordance with Swiss national and cantonal regulations on animal welfare under the permission number 2070. The drug sensitivity assays with S. mansoni (adult and newly transformed schistosomules (NTS)) were carried out as described recently. Briefly, to obtain NTS, cercariae were collected from infected Biomphalaria glabrata snails and were mechanically transformed. Adult S. mansoni worms were collected by dissecting the mesenteric veins of infected mice at day 49 postinfection. Approximately 30–40 NTS were incubated with the respective test drug in 250 µL of M199 medium (Gibco, Waltham, MA) supplemented with 5% (v/v) foetal calf serum (FCS) (Bioconcept AG, Switzerland), 1% (v/v) penicillin/streptomycin solution (Sigma–Aldrich, Switzerland) and 1% (v/v) antibacterial/antifungal solution for up to 72 h at 37 °C and 5% CO2. The drug was tested at 10 µM in triplicate and repeated once. Three adult S. mansoni were incubated in a final volume of 2 mL rpmI 1640 supplemented with 5% (v/v) FCS and 1% (v/v) penicillin/streptomycin at 37 °C and 5% CO2 for 72 h at 10 µM. The experiment was conducted in duplicate. Worms were judged via microscopic readout 72 h after incubation; they were scored according to phenotypic reference points such as motility, morphology and granularity (scores from 0 to 3).

hCA IV = biological target: T3, hCA IV (Homo sapiens, UniProt P22748); assay: stopped flow CO2 hydrase assay, hCA IV; format: biochemical; conditions: mean from three different assays
T3 construct: made in house
Method: as §1

hCA II = biological target: T4, hCA II (Homo sapiens, UniProt P00918); assay: stopped flow CO2 hydrase assay, hCA II; format: biochemical; conditions: mean from three different assays, read-out: Ki hCAII
T4 construct: made in house
Method: as §1

LdCA = LdCA (Leishmania donovani, UniProt A0A3S5H5R2); assay: biochemical; conditions: stopped flow CO2 hydrase assay; mean from three different assays; read-out: Ki LdCA
Method: (§3) An Applied Photophysics stopped-flow instrument was used to assay the CA catalysed CO2 hydration activity. […] The uncatalyzed rates were determined in the same manner and subtracted from the total observed rates. Stock solutions of the inhibitor (0.1 mM) were prepared in distilled–deionized water and dilutions up to 0.01 nM were done thereafter with the assay buffer. Inhibitor and enzyme solutions were preincubated together for 15 min at room temperature prior to the assay, to allow for the formation of the E–I complex. The inhibition constants were obtained by non-linear least-squares methods using PRISM 3 and the Cheng-Prusoff equation as reported earlier and represent the mean from at least three different determinations. All CA isoforms were recombinant proteins obtained in house, as reported earlier[14]^,[26–29].

SmCA = SmCA (Schistosoma mansoni, UniProt A0A3Q0KSG2); assay: biochemical; conditions: stopped flow CO2 hydrase assay; mean from three different assays; read-out: Ki SmCA
Method: as §3

[1] = system: newly transformed schistosomula (NTS); assay: In vitro antischistosomal activity against newly transformed schistosomula (NTS); format: cell-based, Schistosoma mansoni; conditions: 10 μM, after 72 h of exposure, viability via microscopy
Method: as §2

T2 sequence (P00915 whole entry): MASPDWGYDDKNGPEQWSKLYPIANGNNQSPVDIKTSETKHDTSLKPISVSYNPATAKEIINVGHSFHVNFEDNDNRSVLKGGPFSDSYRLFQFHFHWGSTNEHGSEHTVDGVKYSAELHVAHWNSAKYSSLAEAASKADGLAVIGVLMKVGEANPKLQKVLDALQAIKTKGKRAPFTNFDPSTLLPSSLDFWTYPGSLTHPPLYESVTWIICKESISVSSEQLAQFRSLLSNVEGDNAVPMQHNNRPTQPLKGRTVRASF
SmCA, sequence (A0A3Q0KSG2 entry or part of it): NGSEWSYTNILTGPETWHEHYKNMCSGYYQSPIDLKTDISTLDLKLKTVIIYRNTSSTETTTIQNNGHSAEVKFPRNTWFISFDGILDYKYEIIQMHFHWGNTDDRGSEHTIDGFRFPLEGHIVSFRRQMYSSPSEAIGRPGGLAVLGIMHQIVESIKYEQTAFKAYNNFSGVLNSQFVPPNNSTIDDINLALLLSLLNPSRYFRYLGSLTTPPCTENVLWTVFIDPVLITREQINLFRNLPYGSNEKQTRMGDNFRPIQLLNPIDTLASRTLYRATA
LdCA, sequence (A0A3S5H5R2 entry or part of it): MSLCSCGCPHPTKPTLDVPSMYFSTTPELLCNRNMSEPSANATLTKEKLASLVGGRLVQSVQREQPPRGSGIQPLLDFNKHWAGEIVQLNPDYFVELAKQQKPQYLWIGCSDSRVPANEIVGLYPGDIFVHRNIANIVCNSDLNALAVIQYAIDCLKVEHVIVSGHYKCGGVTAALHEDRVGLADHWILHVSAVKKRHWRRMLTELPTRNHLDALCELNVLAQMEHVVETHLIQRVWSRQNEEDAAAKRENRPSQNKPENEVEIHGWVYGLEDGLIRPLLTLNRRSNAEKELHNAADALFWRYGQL
T3 sequence (P22748 19-312): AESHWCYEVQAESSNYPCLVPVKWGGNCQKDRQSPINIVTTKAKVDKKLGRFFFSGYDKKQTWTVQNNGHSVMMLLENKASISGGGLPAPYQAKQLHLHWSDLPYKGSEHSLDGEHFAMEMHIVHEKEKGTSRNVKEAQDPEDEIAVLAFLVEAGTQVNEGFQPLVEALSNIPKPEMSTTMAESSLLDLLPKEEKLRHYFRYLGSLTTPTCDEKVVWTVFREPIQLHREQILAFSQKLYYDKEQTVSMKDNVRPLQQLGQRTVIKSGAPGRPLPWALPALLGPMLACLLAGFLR

NS(=O)(=O)c1ccc(CCC(=O)N2CC(=O)N3CCc4ccccc4C3C2)cc1 (stereo not shown) [Compound 4b, 4–(3-Oxo-3–(4-oxo-1,3,4,6,7,11b-hexahydro-2H-pyrazino[2,1-a]isoquinolin-2-yl)propyl) benzenesulfonamide]
Ki (hCA IX): 139 ± 8 nM | Ki (hCA I): 67.7 ± 5.1 nM | activity against adult S. mansoni worms (S. mansoni adult worms): 20.9% | Ki (hCA IV): 785 ± 58.3 nM | Ki (hCA II): 17.5 ± 1 nM | Ki (LdCA): 417 ± 33.9 nM | Ki (SmCA): 93.6 ± 7 nM

NS(=O)(=O)c1ccc(NC(=O)N2CC(=O)N3CCc4ccccc4C3C2)cc1 (stereo not shown) [Compound 34a, 4-Oxo-N-(4-sulfamoylphenyl)-1,3,4,6,7,11b-hexahydro-2H-pyrazino[2,1-a]isoquinoline-2-carboxamide]
Ki (hCA IX): 24.7 ± 1.44 nM | Ki (hCA I): 70.4 ± 5.7 nM | activity against adult S. mansoni worms (S. mansoni adult worms): 30.6% | activity against NTS [1]: over 30% | Ki (hCA IV): 4410 ± 371 nM | Ki (hCA II): 8.4 ± 0.8 nM | Ki (LdCA): 253 ± 19.4 nM | Ki (SmCA): 59.6 ± 4.3 nM

NS(=O)(=O)c1ccc(CCNC(=O)N2CC(=O)N3CCc4ccccc4C3C2)cc1 (stereo not shown) [Compound 34c, 4-Oxo-N-(4-sulfamoylphenethyl)-1,3,4,6,7,11b-hexahydro-2H-pyrazino[2,1-a]isoquinoline-2-carboxamide]
Ki (hCA IX): 102 ± 5.9 nM | Ki (hCA I): 20.5 ± 2 nM | activity against NTS [1]: over 30% | Ki (hCA IV): 4180 ± 442 nM | Ki (hCA II): 5.8 ± 0.3 nM | Ki (LdCA): 362 ± 27.3 nM | Ki (SmCA): 5.6 ± 0.5 nM
